Patent US11590117B2, “Treatment of a hematologic malignancy with 2-(4-chlorophenyl)-n-((2-(2,6-dioxopiperidin-3-yl)-1-oxoisoindolin-5-yl)methyl)-2,2-difluoroacetamide” (priority 2016, dated 2023)
Where two headings read alike, the source gives them in different places.

How the values were obtained:
Experiment in all cases: IncuCyte Kinetic Caspase-3/7 Apoptosis Assay
Type in all cases: cell-based
[1] = tested on: Kasumi-1; conditions: Homo sapiens, read-out: Compound 1-induced Apoptosis EC50
Source text: (§1) Methods. Acute Myeloid Leukemia Cell Line Panel: Human AML cell lines, AML-193, F36-P, GDM-1, HL-60, HNT-34, Kasumi-1, Kasumi-3, KG-1, KG-1a, ML-2, MOLM-13, MUTZ-8, MV-4-11, NOMO-1, OCI-AML2, OCI-AML3, SIG-M5, TF-1, THP-1, and UT-7 were obtained from American Type Culture Collection (ATCC; Manassas, Va.) and Deutsche Sammlung von Mikroorganismen und Zellkulturen (DSMZ) (Germany) cell banks. The AML panel includes cell line(s) from each FAB classification (M0-M7) (Table 7).
(§2) Cell Culture Conditions: Cell lines were maintained in growth media containing 20% fetal bovine serum (FBS) (Hyclone Cat no. SH30910.03, Lot no. AZF188864; Corning REFno. 35-010-CV, Lot no. 35010124) supplemented with or without 10 ng/mL human recombinant granulocyte-macrophage colony stimulating factor (Sigma-Aldrich Cat no. SRP3050) (Table 8). Medium was purchased from ATCC (Cat no. 30-2001, 30-2002, 30-2003, 30-2005) and Gibco (REF no. 12561-056). Human recombinant granulocyte macrophage colony stimulating factor (GM-CSF) was expressed in Escherichia coli. The cell doubling times for each cell line were provided by ATCC and DSMZ. Cells were maintained in humidified incubators at 5% carbon dioxide (CO2). All cell lines were acclimated to Eagle's minimal essential medium (EMEM)+20% FBS with or without GM-CSF over 2 to 4 weeks prior to live cell imaging using IncuCyte Zoom (Essen Biosciences). The use of EMEM was necessary to eliminate background fluorescence caused by riboflavin in most media.
(§3) Incubation of Cell Cultures with Compound 1: Compound 1 was provided for studies by Celgene chemistry group at a stock concentration of 30 mM in 20 μL dimethyl sulfoxide (DMSO) frozen. Costar 96-well cell culture plates (Corning Cat no. 3595) were coated with 100 μL of 10 µg/mL fibronectin (Sigma-Aldrich Cat no. F1141) for 4 hours at 37° C. and immediately used or refrigerated overnight for later use. Cells (3000 to 6000 cells) were plated in growth medi in fibronectin-coated 96-well plates and incubated for a minimum of a few hours to overnight. Cells were incubated with a 12-point concentration response in triplicate with Compound 1 ([…]) including DMSO and Media controls. A 3-fold serial dilution of Compound 1 starting from a concentration of 200 μM in 0.6% DMSO (diluted in Media) was performed. For most sensitive cell lines, a 3-fold serial dilution of Compound 1 starting from a concentration of 20 μM in 0.6% DMSO (diluted in media) was performed. A volume of 5 μL or 10 μL for each dilution was added to 100 μL or 200 μL cells, respectively (0.3% DMSO final) and incubated for live cell imaging.
(§4) Live Cell Imaging on IncuCyte Zoom: Following incubation of cells with Compound 1, diluted Caspase 3/7 reagent (Essen Biosciences Cat no. 4440) is added to each well. The Caspase-3/7 reagent couples the activated caspase-3/7 recognition motif (DEVD) to NucView™488, a DNA intercalating dye. The cleavage of substrate by activated caspase-3/7 results in the release of the DNA dye and green fluorescent staining of nuclear DNA. This allows imaging of cells undergoing caspase-3/7 mediated apoptosis over time. Caspase-3/7 activation was quantified using the IncuCyte™ ZOOM basic analyzer. Red-labeled cell lines were also imaged over time using the IncuCyte™ ZOOM basic analyzer, for determination of both cell doubling time and Compound 1 effect on cell viability. Experiments were performed at least two times in each cell line.
(§5) Next, a 4 parameter log-logistic model was used to determine relative EC50 at each time point by the ‘drm’ function from the R ‘drc’ package (Ritz C, Streibig J C. Bioassay Analysis using R. J. Statist. Software 2005; 12(5):1-22). Goodness of fit was measured by R squared (coefficient of determination or the amount of variation explained by the model fit) of ≥80%, and EC50 parameter was assessed by having a ratio of standard error to the parameter of ≤40%, and the presence of at least one concentration point above and below the reported EC50. […]

[2] = tested on: Nomo-1; conditions: Homo sapiens, read-out: Compound 1-induced Apoptosis EC50
Source text: as §1, §2, §3, §4, §5

[3] = tested on: KG-1a; conditions: Homo sapiens, read-out: Compound 1-induced Apoptosis EC50
Source text: as §1, §2, §3, §4, §5

[4] = tested on: THP-1; conditions: Homo sapiens
Source text: as §1, §2, §3, §4, §5

[5] = tested on: MV-4-11; conditions: Homo sapiens, read-out: Compound 1-induced Apoptosis EC50
Source text: as §1, §2, §3, §4, §5

[6] = tested on: GDM-1; conditions: Homo sapiens, read-out: Compound 1-induced Apoptosis EC50
Source text: as §1, §2, §3, §4, §5

[7] = tested on: F36-P; conditions: Homo sapiens, read-out: Compound 1-induced Apoptosis EC50
Source text: as §1, §2, §3, §4, §5

[8] = tested on: ML-2; conditions: Homo sapiens, read-out: Compound 1-induced Apoptosis EC50
Source text: as §1, §2, §3, §4, §5

Q: With `O=C1CCC(N2Cc3cc(CNC(=O)C(F)(F)c4ccc(Cl)cc4)ccc3C2=O)C(=O)N1` (stereo not shown) [Compound 1, 2-(4-chlorophenyl)-N-((2-(2,6-dioxopiperidin-3-yl)-1-oxoisoindolin-5-yl)methyl)-2,2-difluoroacetamide] as the molecule, how does the EC50 ([1]; 48 hr) read?
A: 124 nM

Q: What about the EC50 ([1]; 72 hr) of the same molecule?
A: 254 nM

Q: And the EC50 ([1]; 96 hr)?
A: 55 nM

Q: And the EC50 ([2]; 24 hr)?
A: 63 nM

Q: And the EC50 ([2]; 48 hr)?
A: 133 nM

Q: And the EC50 ([2]; 72 hr)?
A: 84 nM

Q: What about the EC50 ([2]; 96 hr) of the same molecule?
A: 66 nM

Q: And the EC50 ([3]; 24 hr)?
A: 226 nM

Q: What about the EC50 ([3]; 48 hr) of the same molecule?
A: 145 nM

Q: What about the EC50 ([3]; 72 hr) of the same molecule?
A: 186 nM

Q: What about the EC50 ([4]; 48 hours, read-out: apoptosis EC50) of the same molecule?
A: > 10000 nM

Q: What about the EC50 ([4]; 48 hours, read-out: apoptosis EC50 48hr) of the same molecule?
A: > 10000 nM

Q: And the EC50 ([4]; all time points, read-out: apoptosis EC50)?
A: > 10000 nM

Q: And the EC50 ([5]; MV4-11, 12 hr)?
A: 227 nM

Q: What about the EC50 ([5]; MV4-11, 24 hr) of the same molecule?
A: 167 nM

Q: What about the EC50 ([5]; MV4-11, 48 hr) of the same molecule?
A: 32 nM

Q: What about the EC50 ([5]; MV4-11, 72 hr) of the same molecule?
A: 16 nM

Q: And the EC50 ([5]; MV4-11, 96 hr)?
A: 17 nM

Q: And the EC50 ([6]; 12 hr)?
A: 110 nM

Q: What about the EC50 ([6]; 24 hr) of the same molecule?
A: 313 nM

Q: And the EC50 ([6]; 48 hr)?
A: 49 nM

Q: What about the EC50 ([6]; 72 hr) of the same molecule?
A: 33 nM

Q: And the EC50 ([6]; 96 hr)?
A: 25 nM

Q: What about the EC50 ([7]; 48 hr) of the same molecule?
A: 335 nM

Q: What about the EC50 ([7]; 72 hr) of the same molecule?
A: 252 nM

Q: And the EC50 ([7]; 96 hr)?
A: 229 nM

Q: And the EC50 ([8]; 12 hr)?
A: 179 nM

Q: And the EC50 ([8]; 24 hr)?
A: 62 nM

Q: What about the EC50 ([8]; 48 hr) of the same molecule?
A: 31 nM

Q: And the EC50 ([8]; 72 hr)?
A: 21 nM

Q: What about the EC50 ([8]; 96 hr) of the same molecule?
A: 25 nM
